Starred links: 1 amine or outer side, 2 acyl side, 3 side chain; linkers in the order of their positions; H or OH if unused. Positions of bridges follow the written chain, without caps; N, C: chain ends. Residues, ends and D or L forms follow the SMILES beside them. *: point of attachment. X12 = CC(C)[C@@H](CNC(N)=O)NC(=O)NC[C@H](C)NC(=O)NC[C@H](CSCc1ccc(C[*:1])cc1)N[*:2]; X1 = CC(C)[C@@H](CNC(N)=O)NC(=O)NC[C@H](C)NC(=O)NC[C@H](CSCCCCCC[*:1])N[*:2]; X13 = CC(C)[C@@H](CNC(N)=O)NC(=O)NC[C@H](C)NC(=O)NC[C@H](CSCCCCC[*:1])N[*:2]; X6 = CC(C)[C@@H](CNC(N)=O)NC(=O)NC[C@H](CSCCCCCC[*:1])NC(=O)NC[C@H](C)N[*:2]; X10 = CC(C)[C@@H](CNC(N)=O)NC(=O)NC[C@H](CSCCC[*:1])NC(=O)NC[C@H](C)N[*:2]; X5 = CC(C)[C@@H](CNC(N)=O)NC(=O)NC[C@H](C)NC(=O)NC[C@H](CSCCC[*:1])N[*:2]; X8 = C[C@@H](CNC(N)=O)NC(=O)NC[C@H](C)NC(=O)NC[C@H](CSC/C=C/C[*:1])N[*:2]; X3 = CC(C)[C@@H](CNC(N)=O)NC(=O)NC[C@H](C)NC(=O)NC[C@H](C)N*; CH2CONHCH2CH2NHCOCH2 = O=C(C[*:1])NCCNC(=O)C[*:2]; NH(CH2CH2O)2(CH2)6Cl = ClCCCCCCOCCOCCN*; Suc = O=C(CCC(=O)[*:2])[*:1]; X11 = C(CCC[*:2])CC[*:1]; X7 = C(CC[*:1])CC[*:2]; X4 = C(C[*:1])C[*:2]
What was measured:
[1] = PROTAC activity at human DM2/p53 extracted from Escherichia coli interaction by measuring inhibition of interaction by time-resolved fluorescence energy transfer (TRFRET) detection method
[2] = molecular target: Tumour suppressor protein p53/Mdm4 (Homo sapiens, UniProt O15151); experiment: PROTAC activity at human DMX/p53 extracted from Escherichia coli interaction by measuring inhibition of interaction by time-resolved fluorescence energy transfer (TRFRET) detection method; assay type: protein assay
Chain of Tumour suppressor protein p53/Mdm4 (P04637 whole entry): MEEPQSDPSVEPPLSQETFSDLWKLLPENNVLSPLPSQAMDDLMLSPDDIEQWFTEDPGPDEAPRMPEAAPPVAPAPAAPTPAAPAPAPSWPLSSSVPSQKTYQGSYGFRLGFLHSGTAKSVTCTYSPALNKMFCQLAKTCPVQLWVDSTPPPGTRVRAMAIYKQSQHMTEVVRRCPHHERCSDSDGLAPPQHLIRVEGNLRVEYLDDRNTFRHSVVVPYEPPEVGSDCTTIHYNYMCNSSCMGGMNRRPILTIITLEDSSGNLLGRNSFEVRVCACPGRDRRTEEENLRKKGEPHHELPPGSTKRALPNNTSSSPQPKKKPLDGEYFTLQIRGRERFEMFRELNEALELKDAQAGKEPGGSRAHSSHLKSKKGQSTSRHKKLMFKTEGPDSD
Chain of Tumour suppressor protein p53/Mdm4 (O15151 whole entry): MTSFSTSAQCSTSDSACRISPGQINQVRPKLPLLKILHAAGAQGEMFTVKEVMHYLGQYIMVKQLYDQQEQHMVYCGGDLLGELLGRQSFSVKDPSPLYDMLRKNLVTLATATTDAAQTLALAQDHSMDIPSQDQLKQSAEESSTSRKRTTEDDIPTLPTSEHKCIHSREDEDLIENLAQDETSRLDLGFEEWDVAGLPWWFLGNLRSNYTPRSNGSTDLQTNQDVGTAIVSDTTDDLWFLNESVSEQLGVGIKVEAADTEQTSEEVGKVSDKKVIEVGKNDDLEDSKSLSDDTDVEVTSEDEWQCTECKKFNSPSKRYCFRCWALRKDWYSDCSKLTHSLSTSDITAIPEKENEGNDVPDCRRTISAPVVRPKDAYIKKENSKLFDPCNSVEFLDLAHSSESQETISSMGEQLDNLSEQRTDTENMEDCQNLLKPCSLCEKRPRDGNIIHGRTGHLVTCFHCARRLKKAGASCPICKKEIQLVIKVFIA

[3] = molecular target: Tumour suppressor p53/oncoprotein Mdm2 (Homo sapiens) (UniProt P04637+Q00987); experiment: PROTAC activity at human MDM2/p53 extracted from Escherichia coli interaction by measuring inhibition of interaction at 100 nM by time-resolved fluorescence energy transfer (TRFRET) detection method relative to control; assay type: protein assay
Chain of Tumour suppressor p53/oncoprotein Mdm2 (Homo sapiens) (P04637 whole entry, looked up): as the sequence (P04637 whole entry) above
Chain of Tumour suppressor p53/oncoprotein Mdm2 (Homo sapiens) (Q00987 whole entry, looked up): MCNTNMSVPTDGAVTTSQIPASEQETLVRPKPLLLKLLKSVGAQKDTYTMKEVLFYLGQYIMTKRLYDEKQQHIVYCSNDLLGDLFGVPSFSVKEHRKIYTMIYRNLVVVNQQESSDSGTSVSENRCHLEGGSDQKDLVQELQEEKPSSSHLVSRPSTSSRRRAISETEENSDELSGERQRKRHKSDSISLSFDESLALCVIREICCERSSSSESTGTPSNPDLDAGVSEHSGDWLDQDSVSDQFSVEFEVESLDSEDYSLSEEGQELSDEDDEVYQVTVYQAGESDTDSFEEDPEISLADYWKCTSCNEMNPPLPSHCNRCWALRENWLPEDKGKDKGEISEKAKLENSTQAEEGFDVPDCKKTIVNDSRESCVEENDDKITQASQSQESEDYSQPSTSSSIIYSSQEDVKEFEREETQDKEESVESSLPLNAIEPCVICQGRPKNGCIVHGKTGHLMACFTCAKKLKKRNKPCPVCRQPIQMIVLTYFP

[4] = molecular target: Tumour suppressor protein p53/Mdm4 (Homo sapiens) (UniProt P04637+O15151); experiment: PROTAC activity at human DMX/p53 extracted from Escherichia coli interaction at 100 nM by measuring inhibition of interaction by time-resolved fluorescence energy transfer (TRFRET) detection method relative to control; assay type: protein assay
Chain of Tumour suppressor protein p53/Mdm4 (Homo sapiens) (O15151 whole entry, looked up): as the sequence (O15151 whole entry) above
Chain of Tumour suppressor protein p53/Mdm4 (Homo sapiens) (P04637 whole entry, looked up): as the sequence (P04637 whole entry) above

[5] = Permeability in human HeLa cells transfected with Halo-GFP-Mito assessed as accumulation in cytosol measured after 4 hrs incubation by chloroalkane penetration assay; assay type: ADME, subcellular

Row | SMILES | IC50 [1] [nM] | IC50 [2] [µM] | inhibition [3] [%] | inhibition [4] [%] | EC50 [5] [nM]
1 | CC(C)[C@@H](CNC(N)=O)NC(=O)NC[C@H](C)NC(=O)NC[C@H](C)NC(=O)[C@H](Cc1c[nH]c2ccccc12)NC(=O)[C@H](Cc1ccc(O)cc1)NC(=O)[C@@H]1CSCCCSC[C@H](N)C(=O)N[C@@H](CO)C(=O)N[C@@H](Cc2ccccc2)C(=O)N[C@@H](C)C(=O)N1 (H-CSFACYW-X3; linker 1-5 via X4) | 23.4 | 80 | 98 | 68 | –
2 | CC(C)[C@@H](CNC(N)=O)NC(=O)NC[C@@H]1CSCCCCCCSC[C@H](NC(=O)[C@H](C)NC(=O)[C@H](Cc2ccccc2)NC(=O)[C@H](CO)NC(=O)[C@@H](N)[C@@H](C)O)C(=O)N[C@@H](Cc2ccc(O)cc2)C(=O)N[C@@H](Cc2c[nH]c3ccccc23)C(=O)N[C@@H](C)CNC(=O)N1 (H-TSFACYW; linker 5-C via X6) | 33.1 | 196 | 86 | 11 | –
3 | CC(C)[C@@H](CNC(N)=O)NC(=O)NC[C@@H]1CSCCCSC[C@H](NC(=O)[C@H](C)NC(=O)[C@H](Cc2ccccc2)NC(=O)[C@H](CO)NC(=O)[C@@H](N)[C@@H](C)O)C(=O)N[C@@H](Cc2ccc(O)cc2)C(=O)N[C@@H](Cc2c[nH]c3ccccc23)C(=O)N[C@@H](C)CNC(=O)N1 (H-TSFACYW; linker 5-C via X10) | – | – | 15 | 4 | –
4 | CC(C)[C@@H](CNC(N)=O)NC(=O)NC[C@H](C)NC(=O)NC[C@@H]1CSCCCCCCSC[C@H](NC(=O)[C@H](Cc2ccccc2)NC(=O)[C@H](CO)NC(=O)[C@@H](N)[C@@H](C)O)C(=O)N[C@@H](C)C(=O)N[C@@H](Cc2ccc(O)cc2)C(=O)N[C@@H](Cc2c[nH]c3ccccc23)C(=O)N1 (H-TSFCAYW; linker 4-C via X1) | – | – | 42 | -3 | –
5 | C[C@@H](CNC(N)=O)NC(=O)NC[C@H](C)NC(=O)NC[C@@H]1CSC/C=C/CSC[C@H](NC(=O)[C@H](Cc2ccccc2)NC(=O)[C@H](CO)NC(=O)[C@@H](N)[C@@H](C)O)C(=O)N[C@@H](CCC(=O)O)C(=O)N[C@@H](Cc2ccc(O)cc2)C(=O)N[C@@H](Cc2c[nH]c3ccccc23)C(=O)N1 (H-TSFCEYW; linker 4-C via X8) | – | – | 82 | 57 | –
6 | CC(C)[C@@H](CNC(N)=O)NC(=O)NC[C@H](C)NC(=O)NC[C@@H]1CSCc2ccc(cc2)CSC[C@H](NC(=O)[C@H](Cc2ccccc2)NC(=O)[C@H](CO)NC(=O)[C@@H](N)[C@@H](C)O)C(=O)N[C@@H](CCC(=O)O)C(=O)N[C@@H](Cc2ccc(O)cc2)C(=O)N[C@@H](Cc2c[nH]c3ccccc23)C(=O)N1 (H-TSFCEYW; linker 4-C via X12) | – | – | 21 | -4 | –
7 | CC(C)[C@@H](CNC(N)=O)NC(=O)NC[C@H](C)NC(=O)NC[C@@H]1CSCCCCCSC[C@H](NC(=O)[C@H](Cc2ccccc2)NC(=O)[C@H](CO)NC(=O)[C@@H](N)[C@@H](C)O)C(=O)N[C@@H](CCC(=O)O)C(=O)N[C@@H](Cc2ccc(O)cc2)C(=O)N[C@@H](Cc2c[nH]c3ccccc23)C(=O)N1 (H-TSFCEYW; linker 4-C via X13) | – | – | 79 | 47 | –
8 | CC(C)[C@@H](CNC(N)=O)NC(=O)NC[C@H](C)NC(=O)NC[C@@H]1CSCCCCCCSC[C@H](NC(=O)[C@H](Cc2ccccc2)NC(=O)[C@H](CO)NC(=O)[C@@H](N)[C@@H](C)O)C(=O)N[C@@H](CCC(N)=O)C(=O)N[C@@H](Cc2ccc(O)cc2)C(=O)N[C@@H](Cc2c[nH]c3ccccc23)C(=O)N1 (H-TSFCQYW; linker 4-C via X1) | – | – | 85 | 36 | –
9 | CC(C)[C@@H](CNC(N)=O)NC(=O)NC[C@H](C)NC(=O)NC[C@@H]1CSCCCCCCSC[C@H](NC(=O)[C@H](Cc2ccccc2)NC(=O)[C@H](CO)NC(=O)[C@@H](N)[C@@H](C)O)C(=O)N[C@@H](CCCNC(=N)N)C(=O)N[C@@H](Cc2ccc(O)cc2)C(=O)N[C@@H](Cc2c[nH]c3ccccc23)C(=O)N1 (H-TSFCRYW; linker 4-C via X1) | – | – | 42 | 2 | –

Results, then the compound that gave them:

Row | IC50 [1] [nM] | IC50 [2] [µM] | inhibition [3] [%] | inhibition [4] [%] | EC50 [5] [nM] | SMILES
10 | 5.7 | 23.8 | – | – | – | CC(=O)N[C@@H](CCCCN)C(=O)N[C@H](C(=O)N[C@@H](Cc1ccccc1)C(=O)N[C@@H](C)C(=O)N[C@@H](CCC(=O)O)C(=O)N[C@@H](Cc1ccc(O)cc1)C(=O)N[C@@H](Cc1c[nH]c2ccccc12)C(=O)N[C@@H](C)CNC(=O)N[C@@H](C)CNC(=O)N[C@H](CNC(N)=O)C(C)C)[C@@H](C)O (Ac-KTFAEYW-X3)
11 | – | – | 98 | 85 | – | CC(C)[C@@H](CNC(N)=O)NC(=O)NC[C@H](C)NC(=O)NC[C@H](C)NC(=O)[C@H](Cc1c[nH]c2ccccc12)NC(=O)[C@H](Cc1ccc(O)cc1)NC(=O)[C@H](CCC(=O)O)NC(=O)[C@H](C)NC(=O)[C@H](Cc1ccccc1)NC(=O)[C@H](CO)NC(=O)[C@@H](N)CCCCN (H-KSFAEYW-X3)
12 | – | – | 95 | 81 | – | CC(C)[C@@H](CNC(N)=O)NC(=O)NC[C@H](C)NC(=O)NC[C@H](C)NC(=O)[C@H](Cc1c[nH]c2ccccc12)NC(=O)[C@H](Cc1ccc(O)cc1)NC(=O)[C@H](CCC(=O)O)NC(=O)[C@H](C)NC(=O)[C@H](Cc1ccccc1)NC(=O)[C@H](CO)NC(=O)[C@@H](NC(=O)[C@H](CCCNC(=N)N)NC(=O)[C@H](CCCNC(=N)N)NC(=O)[C@@H](N)CCCNC(=N)N)[C@@H](C)O (H-RRRTSFAEYW-X3)
13 | – | – | 50 | 23 | – | CC(C)[C@@H](CNC(N)=O)NC(=O)NC[C@H](C)NC(=O)NC[C@H](C)NC(=O)[C@H](Cc1c[nH]c2ccccc12)NC(=O)[C@H](Cc1ccc(O)cc1)NC(=O)[C@@H]1CSSC[C@H](NC(=O)[C@@H](N)[C@@H](C)O)C(=O)N[C@@H](Cc2ccccc2)C(=O)N[C@@H](C)C(=O)N1 (H-TCFACYW-X3; disulfide 2-5)
14 | – | – | 73 | 38 | – | CC(C)[C@@H](CNC(N)=O)NC(=O)NC[C@H](C)NC(=O)NC[C@H](C)NC(=O)[C@H](Cc1c[nH]c2ccccc12)NC(=O)[C@H](Cc1ccc(O)cc1)NC(=O)[C@@H]1CSCC(=O)NCCNC(=O)CSC[C@H](NC(=O)[C@@H](N)[C@@H](C)O)C(=O)N[C@@H](Cc2ccccc2)C(=O)N[C@@H](C)C(=O)N1 (H-TCFACYW-X3; linker 2-5 via CH2CONHCH2CH2NHCOCH2)
15 | 109 | 763 | 41 | 20 | – | CC(C)[C@@H](CNC(N)=O)NC(=O)NC[C@H](C)NC(=O)NC[C@H](C)NC(=O)[C@H](Cc1c[nH]c2ccccc12)NC(=O)[C@H](Cc1ccc(O)cc1)NC(=O)[C@@H]1CSCCCSC[C@H](NC(=O)[C@@H](N)[C@@H](C)O)C(=O)N[C@@H](Cc2ccccc2)C(=O)N[C@@H](C)C(=O)N1 (H-TCFACYW-X3; linker 2-5 via X4)
16 | – | – | 30 | 12 | – | CC(C)[C@@H](CNC(N)=O)NC(=O)NC[C@H](C)NC(=O)NC[C@H](C)NC(=O)[C@H](Cc1c[nH]c2ccccc12)NC(=O)[C@H](Cc1ccc(O)cc1)NC(=O)[C@@H]1CSCCCCCSC[C@H](NC(=O)[C@@H](N)[C@@H](C)O)C(=O)N[C@@H](Cc2ccccc2)C(=O)N[C@@H](C)C(=O)N1 (H-TCFACYW-X3; linker 2-5 via X7)
17 | – | – | 36 | 14 | – | CC(C)[C@@H](CNC(N)=O)NC(=O)NC[C@H](C)NC(=O)NC[C@H](C)NC(=O)[C@H](Cc1c[nH]c2ccccc12)NC(=O)[C@H](Cc1ccc(O)cc1)NC(=O)[C@@H]1CSCCCCCCSC[C@H](NC(=O)[C@@H](N)[C@@H](C)O)C(=O)N[C@@H](Cc2ccccc2)C(=O)N[C@@H](C)C(=O)N1 (H-TCFACYW-X3; linker 2-5 via X11)
18 | 23.8 | 82 | 97 | 61 | – | CC(C)[C@@H](CNC(N)=O)NC(=O)NC[C@H](C)NC(=O)NC[C@H](C)NC(=O)[C@H](Cc1c[nH]c2ccccc12)NC(=O)[C@H](Cc1ccc(O)cc1)NC(=O)[C@H](CCC(=O)O)NC(=O)[C@H](C)NC(=O)[C@H](Cc1ccccc1)NC(=O)[C@H](CO)NC(=O)[C@@H](N)[C@@H](C)O (H-TSFAEYW-X3)
19 | 25.6 | 108 | 86 | 50 | – | CC(C)[C@@H](CNC(N)=O)NC(=O)NC[C@H](C)NC(=O)NC[C@@H]1CSCCCSC[C@H](NC(=O)[C@H](Cc2ccccc2)NC(=O)[C@H](CO)NC(=O)[C@@H](N)[C@@H](C)O)C(=O)N[C@@H](CCC(=O)O)C(=O)N[C@@H](Cc2ccc(O)cc2)C(=O)N[C@@H](Cc2c[nH]c3ccccc23)C(=O)N1 (H-TSFCEYW; linker 4-C via X5)
20 | – | – | – | – | 1950 | CC(C)[C@@H](CNC(N)=O)NC(=O)NC[C@H](C)NC(=O)NC[C@H](C)NC(=O)[C@H](Cc1c[nH]c2ccccc12)NC(=O)[C@H](Cc1ccc(O)cc1)NC(=O)[C@H](CCC(=O)O)NC(=O)[C@H](C)NC(=O)[C@H](Cc1ccccc1)NC(=O)[C@@H](NC(=O)[C@H](CCCCN)NC(=O)CCC(=O)NCCOCCOCCCCCCCl)[C@@H](C)O ({NH(CH2CH2O)2(CH2)6Cl-Suc}-KTFAEYW-X3)

— ChEMBL document CHEMBL6087461, “Cell-Permeable Peptide Inhibitors of the p53-hDM2 Interaction via Foldamer Helix Mimicry and Bis-Thioether Stapling” (J Med Chem, 2025)
